# According to PubChem BioAssay AID1845208 (Molecular Pharmacology Branch, DTP, NCI, 2023):
# Test system: NCI-H196 SCLC complex tumor spheroid viability
# Assay: Anticancer human tumor NCI-H196 cell line growth inhibition;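 note: spheroids exposed to compounds for 7 days before readout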;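 for viability, T/C: 100% = DMSO vehicle control wells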
# Settings: for IC50: curve of first compound; for viability, T/C: stronger effect = lower value
# Procedure, shortened: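 Single agents and combinations were tested on spheroids built from tumor cells plus HUVEC and hMSC, at half-log dilutions starting at or near clinical Cmax, else 10 microM; final DMSO 0.25% (v/v).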
# [1] = second compound 30 pM, first compound 0.0316 µM
# [2] = second compound 30 pM, first compound 0.1 µM
# [3] = second compound 30 pM, first compound 0.316 µM
# [4] = second compound 30 pM, first compound 1 µM
# [5] = second compound 30 pM, first compound 3.16 µM
# [6] = second compound 30 pM, first compound 10 µM
# [7] = second compound 94.9 pM, first compound 0.0316 µM
# [8] = second compound 94.9 pM, first compound 0.1 µM
# [9] = second compound 94.9 pM, first compound 0.316 µM
# [10] = second compound 94.9 pM, first compound 1 µM
# [11] = second compound 94.9 pM, first compound 3.16 µM
# [12] = second compound 94.9 pM, first compound 10 µM
# [13] = second compound 0.0003 µM, first compound 0.0316 µM
# [14] = second compound 0.0003 µM, first compound 0.1 µM
# [15] = second compound 0.0003 µM, first compound 0.316 µM
# [16] = second compound 0.0003 µM, first compound 1 µM
# [17] = second compound 0.0003 µM, first compound 3.16 µM
# [18] = second compound 0.0003 µM, first compound 10 µM
# [19] = second compound 0.000949 µM, first compound 0.0316 µM
# [20] = second compound 0.000949 µM, first compound 0.1 µM
# [21] = second compound 0.000949 µM, first compound 0.316 µM
# [22] = second compound 0.000949 µM, first compound 1 µM
# [23] = second compound 0.000949 µM, first compound 3.16 µM
# [24] = second compound 0.000949 µM, first compound 10 µM
# [25] = second compound 0.003 µM, first compound 0.0316 µM
# [26] = second compound 0.003 µM, first compound 0.1 µM
# [27] = second compound 0.003 µM, first compound 0.316 µM
# [28] = second compound 0.003 µM, first compound 1 µM
# [29] = second compound 0.003 µM, first compound 3.16 µM
# [30] = second compound 0.003 µM, first compound 10 µM
compound,measurement,setting,value
CC(C)n1c(=O)n(C)c2cnc3cc(F)c(-c4ccc(OCCCN5CCCCC5)nc4)cc3c21 + COc1cc2c(cc1O)CCNC21CSC2c3c(OC(C)=O)c(C)c4c(c3C(COC1=O)N1C(O)C3Cc5cc(C)c(OC)c(O)c5C(C21)N3C)OCO4,IC50,second compound 30 pM,> 10 µM
same,IC50,second compound 94.9 pM,> 10 µM
same,IC50,second compound 0.0003 µM,> 10 µM
same,IC50,second compound 0.000949 µM,> 10 µM
same,IC50,second compound 0.003 µM,< 0.0316 µM
same,"viability, T/C",[1],104%
same,"viability, T/C",[2],106%
same,"viability, T/C",[3],106%
same,"viability, T/C",[4],104%
same,"viability, T/C",[5],114%
same,"viability, T/C",[6],107%
same,"viability, T/C",[7],106%
same,"viability, T/C",[8],107%
same,"viability, T/C",[9],105%
same,"viability, T/C",[10],107%
same,"viability, T/C",[11],123%
same,"viability, T/C",[12],112%
same,"viability, T/C",[13],103%
same,"viability, T/C",[14],112%
same,"viability, T/C",[15],111%
same,"viability, T/C",[16],112%
same,"viability, T/C",[17],116%
same,"viability, T/C",[18],104%
same,"viability, T/C",[19],93.8%
same,"viability, T/C",[20],97.7%
same,"viability, T/C",[21],92.6%
same,"viability, T/C",[22],93.7%
same,"viability, T/C",[23],106%
same,"viability, T/C",[24],95.2%
same,"viability, T/C",[25],7%
same,"viability, T/C",[26],6.41%
same,"viability, T/C",[27],9.42%
same,"viability, T/C",[28],3.31%
same,"viability, T/C",[29],2.99%
same,"viability, T/C",[30],3.29%
CC1COCCN1c1cc(-c2ccnn2C)c2ccnc(-c3ccn[nH]3)c2n1 (stereo not given) + COc1cc2c(cc1O)CCNC21CSC2c3c(OC(C)=O)c(C)c4c(c3C(COC1=O)N1C(O)C3Cc5cc(C)c(OC)c(O)c5C(C21)N3C)OCO4,IC50,second compound 30 pM,4.19 µM
same,IC50,second compound 94.9 pM,3.43 µM
same,IC50,second compound 0.0003 µM,2.5 µM
same,IC50,second compound 0.000949 µM,0.711 µM
same,IC50,second compound 0.003 µM,< 0.0316 µM
same,"viability, T/C",[1],90.5%
same,"viability, T/C",[2],74.5%
same,"viability, T/C",[3],67.2%
same,"viability, T/C",[4],56.7%
same,"viability, T/C",[5],51.8%
same,"viability, T/C",[6],46.3%
same,"viability, T/C",[7],89.1%
same,"viability, T/C",[8],73.8%
same,"viability, T/C",[9],67%
same,"viability, T/C",[10],58%
same,"viability, T/C",[11],50.8%
same,"viability, T/C",[12],44.5%
same,"viability, T/C",[13],81.8%
same,"viability, T/C",[14],67.1%
same,"viability, T/C",[15],64%
same,"viability, T/C",[16],59.2%
same,"viability, T/C",[17],45.9%
same,"viability, T/C",[18],42.5%
same,"viability, T/C",[19],72.2%
same,"viability, T/C",[20],64%
same,"viability, T/C",[21],56.3%
same,"viability, T/C",[22],51.7%
same,"viability, T/C",[23],31.9%
same,"viability, T/C",[24],32.6%
same,"viability, T/C",[25],9.26%
same,"viability, T/C",[26],6.28%
same,"viability, T/C",[27],10.1%
same,"viability, T/C",[28],3.62%
same,"viability, T/C",[29],0.78%
same,"viability, T/C",[30],0.39%
COc1cc(C)[nH]c(=O)c1CN1CCc2c(Cl)cc(C(OC)C3COC3)c(Cl)c2C1=O (stereo not given) + COc1cc2c(cc1O)CCNC21CSC2c3c(OC(C)=O)c(C)c4c(c3C(COC1=O)N1C(O)C3Cc5cc(C)c(OC)c(O)c5C(C21)N3C)OCO4,IC50,second compound 30 pM,> 10 µM
same,IC50,second compound 94.9 pM,> 10 µM
same,IC50,second compound 0.0003 µM,> 10 µM
same,IC50,second compound 0.000949 µM,> 10 µM
same,IC50,second compound 0.003 µM,< 0.0316 µM
same,"viability, T/C",[1],104%
same,"viability, T/C",[2],101%
same,"viability, T/C",[3],95.8%
same,"viability, T/C",[4],101%
same,"viability, T/C",[5],97.8%
same,"viability, T/C",[6],98.4%
same,"viability, T/C",[7],107%
same,"viability, T/C",[8],96.5%
same,"viability, T/C",[9],103%
same,"viability, T/C",[10],95.4%
same,"viability, T/C",[11],99.1%
same,"viability, T/C",[12],104%
same,"viability, T/C",[13],100%
same,"viability, T/C",[14],105%
same,"viability, T/C",[15],98.8%
same,"viability, T/C",[16],97.1%
same,"viability, T/C",[17],94.6%
same,"viability, T/C",[18],97.8%
same,"viability, T/C",[19],83.7%
same,"viability, T/C",[20],80.3%
same,"viability, T/C",[21],83%
same,"viability, T/C",[22],80.9%
same,"viability, T/C",[23],87%
same,"viability, T/C",[24],77.9%
same,"viability, T/C",[25],18.9%
same,"viability, T/C",[26],5.38%
same,"viability, T/C",[27],7.56%
same,"viability, T/C",[28],12.5%
same,"viability, T/C",[29],5.22%
same,"viability, T/C",[30],2.69%
COc1ccc([C@@H](O)c2cc(-c3ncnc4cc(N5CCOCC5)ccc34)c(F)cc2Cl)nn1 + COc1cc2c(cc1O)CCNC21CSC2c3c(OC(C)=O)c(C)c4c(c3C(COC1=O)N1C(O)C3Cc5cc(C)c(OC)c(O)c5C(C21)N3C)OCO4,IC50,second compound 30 pM,9.14 µM
same,IC50,second compound 94.9 pM,7.24 µM
same,IC50,second compound 0.0003 µM,2.97 µM
same,IC50,second compound 0.000949 µM,0.975 µM
same,IC50,second compound 0.003 µM,< 0.0316 µM
same,"viability, T/C",[1],103%
same,"viability, T/C",[2],94.9%
same,"viability, T/C",[3],93.8%
same,"viability, T/C",[4],77.8%
same,"viability, T/C",[5],62.6%
same,"viability, T/C",[6],49%
same,"viability, T/C",[7],106%
same,"viability, T/C",[8],107%
same,"viability, T/C",[9],93.6%
same,"viability, T/C",[10],75.4%
same,"viability, T/C",[11],60%
same,"viability, T/C",[12],46%
same,"viability, T/C",[13],99%
same,"viability, T/C",[14],96.7%
same,"viability, T/C",[15],91.1%
same,"viability, T/C",[16],69.5%
same,"viability, T/C",[17],50.2%
same,"viability, T/C",[18],32.5%
same,"viability, T/C",[19],81.8%
same,"viability, T/C",[20],80.6%
same,"viability, T/C",[21],78.1%
same,"viability, T/C",[22],45.3%
same,"viability, T/C",[23],26.6%
same,"viability, T/C",[24],9.62%
same,"viability, T/C",[25],8.41%
same,"viability, T/C",[26],3.38%
same,"viability, T/C",[27],3.43%
same,"viability, T/C",[28],0.71%
same,"viability, T/C",[29],0.82%
same,"viability, T/C",[30],0.59%
[2H]c1nc(C)nc([2H])c1-c1cc(NC[C@@H](C)c2cccc3c(C(=O)NC)ccnc23)ncn1 + COc1cc2c(cc1O)CCNC21CSC2c3c(OC(C)=O)c(C)c4c(c3C(COC1=O)N1C(O)C3Cc5cc(C)c(OC)c(O)c5C(C21)N3C)OCO4,IC50,second compound 30 pM,> 10 µM
same,IC50,second compound 94.9 pM,> 10 µM
same,IC50,second compound 0.0003 µM,> 10 µM
same,IC50,second compound 0.000949 µM,> 10 µM
same,IC50,second compound 0.003 µM,< 0.0316 µM
same,"viability, T/C",[1],102%
same,"viability, T/C",[2],102%
same,"viability, T/C",[3],101%
same,"viability, T/C",[4],104%
same,"viability, T/C",[5],99.4%
same,"viability, T/C",[6],97.6%
same,"viability, T/C",[7],105%
same,"viability, T/C",[8],108%
same,"viability, T/C",[9],101%
same,"viability, T/C",[10],106%
same,"viability, T/C",[11],97.8%
same,"viability, T/C",[12],104%
same,"viability, T/C",[13],102%
same,"viability, T/C",[14],106%
same,"viability, T/C",[15],106%
same,"viability, T/C",[16],105%
same,"viability, T/C",[17],104%
same,"viability, T/C",[18],105%
same,"viability, T/C",[19],92.5%
same,"viability, T/C",[20],86%
same,"viability, T/C",[21],88.2%
same,"viability, T/C",[22],83.5%
same,"viability, T/C",[23],83.4%
same,"viability, T/C",[24],93.7%
same,"viability, T/C",[25],5.55%
same,"viability, T/C",[26],6.42%
same,"viability, T/C",[27],3.96%
same,"viability, T/C",[28],6.02%
same,"viability, T/C",[29],4.53%
same,"viability, T/C",[30],2.75%
